According to patent US11464793B2, “Nutritional formulations including human milk oligosaccharides and antioxidants and uses thereof” (priority 2010, dated 2022):

Columns and labels:
[1] = system: respiratory syncytial virus (RSV); test: In vitro inhibition of viral infectivity by purified HMOs (Example 36), RSV; format: cell-based; details: co-incubation of virus (about 500 to 1,000 units/mL) with HMO at 1 or 10 mg/mL
Description: In this Example, the effect of purified human milk oligosaccharides (HMO) on in vitro inhibition of viral infectivity is analyzed.
Samples are prepared by co-incubation of a uniform virus dose of from about 500 units/mL to about 1,000 units/mL of one of three respiratory viruses: (1) respiratory syncytial virus (RSV); (2) human parainfluenza virus (HPIV3); or (3) H1N1 influenza virus with one of the following HMOs: (1) 3′-sialyllactose (3′SL); (2) 6′-sialyllactose (6′SL); (3) 3′-fucosyllactose (3′FL); (4) 2′-fucosyllactose (2′FL); (5) lacto-N-neotetraose (LNnT); or (6) sialic acid (SA). The HMOs are added at concentrations of either 1 mg/mL or 10 mg/mL.

[2] = system: H1N1 influenza virus; format: cell-based; details: for IC50 (mg HMO/mL) H1N1 Influenza: co-incubation of virus (about 500 to 1,000 units/mL) with HMO at 1 or 10 mg/mL
[3] = system: interferon-inducible protein 10 (IP-10); test: IP-10 in supernatants of RSV-infected peripheral blood mononuclear cells pretreated with HMO (Example 39); format: cell-based, human; details: for IP-10 in virus-infected variables: PBMC of two donors, 24 h pretreatment, RSV MOI 0.1, supernatants at 24 and 48 hours, FIGS. 3-6; for IP-10 level reached relative to uninfected controls: RSV-infected PBMC; for dampening of virus-induced inflammation as measured by a decrease in IP-10, comparison: compared with 3′SL; for reduction of inflammation caused by RSV: pretreatment for 24 hours
Description: (§1) Specifically, either 3′SL or 6′SL is added, at concentrations of 0.1 mg/mL, 0.2 mg/mL, or 0.5 mg/mL to fresh peripheral blood mononuclear cells and incubated at 37° C. in 5% CO2 to pretreat the cells for approximately 24 hours. LNnT is added, at concentrations of 0.1 mg/mL, 0.2 mg/mL, or 1 mg/mL to fresh peripheral blood mononuclear cells and incubated at 37° C. in 5% CO2 to pretreat the cells for approximately 24 hours. Lactose is included as a carbohydrate control. Matched endotoxin unit concentration controls are included to allow differentiation of ingredient effects from inherent low levels of endotoxin. Some variables are then incubated with RSV at a multiplicity of infection (MOI) of 0.1 for approximately 1 hour at 37° C. in 5% in CO2. Uninfected control variables are incubated with medium for approximately 1 hour at 37° C. in 5% CO2. After approximately one hour, fresh medium alone, or fresh medium containing the appropriate concentration of 3′SL, 6′SL, LNnT, lactose, or endotoxin is added to the appropriate tubes and the cells are incubated for 48 hours at 37° C. in 5% CO2. Supernatants are collected at 24 and 48 hours post-infection.
(§2) Cytokines are measured in supernatants for each variable at 24 and 48 hours to assess the effects of HMOs on the early immune response to RSV. Cytokines are measured using custom Bio-Plex Human cytokine kits from Bio-Rad. Results for interferon-inducible protein 10 (IP-10, also known as CXCL 10) are shown in FIGS. 3 and 4 for 3′SL and 6′SL, and in FIGS. 5 and 6 for LNnT. IP-10 is a CXC chemokine that attracts, binds to and activates the CXCR3 receptor on natural killer cells and memory T cells. IP-10 is expressed by monocytes and a number of other cells, and is induced by interferon. A positive con-elation exists between RSV clinical disease severity in children (as measured by: length of hospital stay, fever, and number of days supplemental O2 is required) and serum IP-10. Therefore, a decrease in IP-10 signals a decrease in severity of RSV disease experienced.

[4] = system: interleukin 10 (IL-10); test: IL-10 in supernatants of peripheral blood mononuclear cells with or without RSV (Example 39); format: cell-based, human; details: in the presence or absence of RSV; FIGS. 7-10
Description: as §1, with “After approximately one hour, fresh medium alone, or fresh medium containing the appropriate concentration of 3′SL, 6′SL, LNnT, lactose, or endotoxin is added to the appropriate tubes and the cells are incubated for 48 hours at 37° C. in 5% CO2. Supernatants are collected at 24 and 48 hours post-infection.” left out
Cytokines are measured in supernatants for each variable at 24 and 48 hours to assess the effects of HMOs on the early immune response to RSV. Cytokines are measured using custom Bio-Plex Human cytokine kits from Bio-Rad. […] A positive con-elation exists between RSV clinical disease severity in children (as measured by: length of hospital stay, fever, and number of days supplemental O2 is required) and serum IP-10. […]

[5] = system: monocyte-derived cytokines; test: Monocyte-derived cytokines in peripheral blood mononuclear cells with or without RSV (Example 39); format: cell-based, human; details: PBMC
Description: as §1, §2

[6] = system: human parainfluenza virus (HPIV3); format: cell-based; details: co-incubation of virus (about 500 to 1,000 units/mL) with HMO at 1 or 10 mg/mL
[7] = system: H1N1 influenza virus; test: microbe, parasite or virus in culture; format: cell-based; details: HMO at 10 mg/mL, MDCK cells, FIG. 1

CC(=O)N[C@H]1[C@H](O[C@H]2[C@@H](O)[C@@H](CO)O[C@@H](O[C@H]3[C@H](O)[C@@H](O)C(O)O[C@@H]3CO)[C@@H]2O)O[C@H](CO)[C@@H](O[C@@H]2O[C@H](CO)[C@H](O)[C@H](O)[C@H]2O)[C@@H]1O (mixture of isomers) [LNnT, lacto-N-neotetraose]
IC50 (mg HMO/mL) RSV [1]: >10 mg HMO/mL | IC50 (mg HMO/mL) H1N1 Influenza [2]: >10 mg HMO/mL | IP-10 in virus-infected variables [3]: clearly downregulates IP-10 | IP-10 level reached relative to uninfected controls [3]: reduce IP-10 to levels found in uninfected controls | dampening of virus-induced inflammation as measured by a decrease in IP-10, comparison [3]: more effective than 3′SL | reduction of inflammation caused by RSV [3]: effective in reducing inflammation caused by RSV | IL-10 concentration [4]: increases IL-10 concentration in a dose-dependent manner | production of monocyte-derived cytokines (IL-10, MIP-1β, Interferon-γ, IL-8, IL-1α, IL-1β, IL-1ra) [5]: immunomodulatory in the presence or absence of the virus

CC(=O)N[C@H]1[C@H]([C@H](O)[C@H](O)CO)O[C@@](O[C@H]2[C@@H](O)[C@@H](CO)O[C@@H](O[C@H]3[C@H](O)[C@@H](O)C(O)O[C@@H]3CO)[C@@H]2O)(C(=O)O)C[C@@H]1O (stereo partly shown) [3′SL, 3′-sialyllactose]
IC50 (mg HMO/mL) RSV [1]: >10 mg HMO/mL | IC50 (mg HMO/mL) HPIV3 [6]: >10 mg HMO/mL | anti-viral activity against H1N1 influenza virus ([2]; HMO at 1 mg/mL): inhibited | IC50 (mg HMO/mL) H1N1 Influenza [2]: ~5 mg HMO/mL | RSV-induced IP-10, Donor B ([3]; Donor B, 0.1, 0.2 or 0.5 mg/mL): not effective | RSV-induced IP-10, Donor E ([3]; Donor E, 0.1, 0.2 or 0.5 mg/mL): downregulates RSV-induced IP-10 | IP-10 in virus-infected variables [3]: dampen RSV-induced IP-10 | reduction of inflammation caused by RSV [3]: effective in reducing inflammation caused by RSV | production of monocyte-derived cytokines (IL-10, MIP-1β, Interferon-γ, IL-8, IL-1α, IL-1β, IL-1ra) [5]: immunomodulatory in the presence or absence of the virus

CC(=O)N[C@H]1[C@H]([C@H](O)[C@H](O)CO)O[C@@](OC[C@H]2O[C@@H](O[C@H]3[C@H](O)[C@@H](O)[C@H](O)O[C@@H]3CO)[C@H](O)[C@@H](O)[C@H]2O)(C(=O)O)C[C@@H]1O [6′SL, 6′-sialyllactose]
IC50 (mg HMO/mL) RSV [1]: >10 mg HMO/mL | IC50 (mg HMO/mL) HPIV3 [6]: >10 mg HMO/mL | IC50 (mg HMO/mL) H1N1 Influenza [2]: ~10 mg HMO/mL | inhibition of H1N1 virus infectivity [7]: approximately 60% | IP-10 in virus-infected variables [3]: clearly downregulates IP-10 | IP-10 level reached relative to uninfected controls [3]: reduce IP-10 to levels found in uninfected controls | dampening of virus-induced inflammation as measured by a decrease in IP-10, comparison [3]: more effective than 3′SL | reduction of inflammation caused by RSV [3]: effective in reducing inflammation caused by RSV | IL-10 concentration [4]: increases interleukin 10 (IL-10) concentration in a dose-dependent manner | production of monocyte-derived cytokines (IL-10, MIP-1β, Interferon-γ, IL-8, IL-1α, IL-1β, IL-1ra) [5]: immunomodulatory in the absence of the virus

CC(=O)N[C@H]1[C@H]([C@H](O)[C@H](O)CO)OC(O)(C(=O)O)C[C@@H]1O (stereo partly shown) [SA, sialic acid]
inhibition at 10000 µg/mL ([7]; Influenza A virus, H1N1, read-out: inhibition of H1N1 virus infectivity): > 90%
